Source: article PMC4322620 (Frontiers in Pharmacology, 2015)
Where a SMILES comes first, the peptide text is derived from it. [ ]: non-standard residue; d: D form. The star is where a group is joined. X1 = CC(=O)N[C@@H]1[C@@H](O[C@@H]2O[C@H](CO)[C@H](O)[C@H](O)[C@H]2O)[C@@H](O)[C@@H](CO)O[C@@H]1*; X2 = CC12CC3CC(C)(C1)CC(N*)(C3)C2; pGlu = O=C1CC[C@@H](C(=O)O)N1

Tests used:
in vitro [1] = details: rat, serum
NTS1 (HT-29 cells) = NTS1 (HT-29 cells) (Homo sapiens, UniProt P30989); experiment: cell-based
in vitro [2] = details: mouse, other tissue homogenate
[3] = target: cell-surface neurotensin receptors (HT-29 cells) (Homo sapiens, UniProt P30989); format: cell-based
[4] = target: neurotensin receptors (HT-29 cells) (Homo sapiens, UniProt P30989); format: cell-based
motor impairment = details: mouse, in vivo

Chain of neurotensin receptors (HT-29 cells) (P30989 whole entry, looked up): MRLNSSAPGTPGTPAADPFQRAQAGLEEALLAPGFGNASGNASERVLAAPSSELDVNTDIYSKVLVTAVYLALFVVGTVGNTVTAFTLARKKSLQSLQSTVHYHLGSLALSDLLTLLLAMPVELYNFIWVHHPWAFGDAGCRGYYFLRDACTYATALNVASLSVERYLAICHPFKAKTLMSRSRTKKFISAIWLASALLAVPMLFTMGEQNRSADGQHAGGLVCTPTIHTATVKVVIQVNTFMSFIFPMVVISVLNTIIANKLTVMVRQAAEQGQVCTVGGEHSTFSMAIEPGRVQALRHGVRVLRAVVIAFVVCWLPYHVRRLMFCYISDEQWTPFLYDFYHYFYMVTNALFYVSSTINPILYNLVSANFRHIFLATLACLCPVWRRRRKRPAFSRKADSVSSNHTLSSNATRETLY
Chain of NTS1 (HT-29 cells) (P30989 whole entry, looked up): as above
Chain of cell-surface neurotensin receptors (HT-29 cells) (P30989 whole entry, looked up): as above

Row | Compound | half-life (in vitro [1]) | EC50 (NTS1 (HT-29 cells)) | half-life (in vitro [2]) | levels of cell-surface neurotensin receptors after agonist exposure [3] | DC50 [4] | DC50/EC50 [4] | rotorod toxicity (motor impairment)
1 | CC[C@H](C)[C@H](NC(=O)[C@H](Cc1ccc(O)cc1)NC(=O)[C@@H]1CCCN1C(=O)[C@H](CCCCN)NC(=O)[C@H](CCCCN)NC(=O)[C@@H](NC(=O)[C@H](C)NC(=O)[C@H](CC(N)=O)NC(=O)[C@H](CO)NC(=O)CNC(=O)CNC(=O)[C@H](CCC(=O)O)NC(=O)[C@H](CCC(=O)O)NC(=O)[C@H](CO)NC(=O)[C@@H]1CCC(=O)N1)[C@@H](C)O[C@H]1O[C@H](CO)[C@H](O)[C@H](O[C@@H]2O[C@H](CO)[C@H](O)[C@H](O)[C@H]2O)[C@H]1NC(C)=O)C(=O)N[C@@H](CC(C)C)C(=O)O [Contulakin-G] ([pGlu]SEEGGSNAT(X1)KKPYIL-OH) | > 16 h | 32.4 ± 14.5 nM | > 2.67 h | significantly higher levels | 444 ± 41 nM | 14 | –
2 | CC[C@H](C)[C@H](NC(=O)[C@H](Cc1ccc(O)cc1)NC(=O)[C@@H]1CCCN1C(=O)[C@H](CCCCN)NC(=O)[C@H](CCCCN)NC(=O)[C@H](CCC(=O)NC12CC3CC(C)(CC(C)(C3)C1)C2)NC(=O)[C@H](CCCCN)NC(=O)[C@H](CC(N)=O)NC(=O)[C@H](CO)NC(=O)CNC(=O)CNC(=O)[C@H](CCC(=O)O)NC(=O)[C@H](CCC(=O)O)NC(=O)[C@H](CO)NC(=O)[C@@H]1CCC(=O)N1)C(=O)N[C@@H](CC(C)C)C(=O)O [memantine-Contulakin-G] ([pGlu]SEEGGSNKE(X2)KKPYIL-OH) | – | – | – | – | – | – | no rotorod toxicity
